Experiments:
[1] = system: intracellular ATP levels in TYS-Luc cells; assay: Intracellular ATP levels, TYS-Luc cells; type: cell-based, human; conditions: 10,000 nM thapsigargin, 1 hr
Experimental: TYS-Luc cells were maintained DMSO vehicle (Veh), 1,000 nM BHPI, 1,000 nM (−)-105 with and without 10,000 nM thapsigargin (THG) for the indicated times. ATP levels were determines using a kit and relative ATP levels were from a standard curve. […] (n=3±SEM).

[2] = system: TYS-Luc cells; assay: Cell death with or without thapsigargin, TYS-Luc; type: cell-based, human; conditions: 1 hour
Description: TYS-Luc cells were maintained in DMSO vehicle (Veh) or BHPI, or (−)-105 with or without thapsigargin (THG) for the indicated times. Blocking the decline in ATP levels (FIG. 19) with THG inhibited (−)-105-induced cell death.

C/C=C(/C)C(=O)O[C@H]1C(C)=C2[C@H]([C@@H]1OC(=O)CCCCCCC)[C@@](C)(OC(C)=O)C[C@H](OC(=O)CCC)[C@@]1(O)[C@H]2OC(=O)[C@@]1(C)O [THG, thapsigargin, reference compound]
block of (−)-105-induced decline in intracellular ATP levels [1]: completely blocked
inhibition of (−)-105-induced cell death [2]: strong inhibition

— patent publication US11046647B2, “Activators of the unfolded protein response” (The Board of Trustees of the University of Illinois, priority 2018, dated 2021)
